Consider one compound from publication PMC10822893, “Selective herbicide safening in dicot plants: a case study in Arabidopsis” (Frontiers in Plant Science, 2024).

The target of one assay is T1, AtGSTU19 (Arabidopsis thaliana, UniProt Q9ZRW8).
T1 construct: gene GSTU19
Nature of the assay: UPLC-qTOF MS initial velocities, Michaelis-Menten non-linear regression. In kind it is biochemical. As to conditions: co-substrate glutathione; unit printed as µmol (amount, not concentration). The text has this: UPLC-qTOF MS initial velocities, Michaelis-Menten non-linear regression on AtGSTU19

In a further assay the target is T2, AtGSTU7 (Arabidopsis thaliana, UniProt Q9ZW24).
T2 construct: gene GSTU7
T2 sequence (Q9ZW24 1-227): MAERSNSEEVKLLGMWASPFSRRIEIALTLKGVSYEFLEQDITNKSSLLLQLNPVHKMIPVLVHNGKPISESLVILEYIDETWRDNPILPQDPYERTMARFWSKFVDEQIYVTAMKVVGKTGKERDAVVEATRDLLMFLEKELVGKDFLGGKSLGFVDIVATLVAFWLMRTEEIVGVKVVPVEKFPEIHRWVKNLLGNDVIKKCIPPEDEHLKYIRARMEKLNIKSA
Described as above. In kind it is biochemical. As to conditions: co-substrate glutathione; unit printed as µmol (amount, not concentration). The text has this:
UPLC-qTOF MS initial velocities, Michaelis-Menten non-linear regression on AtGSTU7

T1 sequence (Q9ZRW8 whole entry): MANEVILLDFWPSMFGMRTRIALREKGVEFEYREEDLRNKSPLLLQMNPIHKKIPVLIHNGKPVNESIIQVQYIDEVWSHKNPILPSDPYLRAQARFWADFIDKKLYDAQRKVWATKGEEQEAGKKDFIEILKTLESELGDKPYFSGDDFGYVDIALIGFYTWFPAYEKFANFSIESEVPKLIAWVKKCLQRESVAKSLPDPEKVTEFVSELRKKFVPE

In the case of `CC(C)N(C(=O)COc1nnc(C(F)(F)F)s1)c1ccc(F)cc1` [flufenacet], the “Km” value on AtGSTU19 came out at 95.08 µmol; at AtGSTU7, 109.57 µmol.
